Test results published in the supplement of paper PMC10307832.

Key:
Test in all cases: relative viability (nuclei count vs DMSO), 5 days (fraction); higher = more cells survive
[1] = compound: CN(C)CC1=CC(=CC=C1)N=C(C2=CC=CC=C2)C3=C(NC4=C3C=CC(=C4)C(=O)N(C)C)O + CS(=O)(=O)N1CCN(Cc2cc3nc(-c4cccc5[nH]ncc45)nc(N4CCOCC4)c3s2)CC1 [Pictilisib] (partner 1 µM)
How it was run: (§1)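 Relative viability divides the nuclei count in treated wells by that in vehicle wells. Lung cancer cell lines were seeded in 1536-well plates, dosed by pin tool the next day, and fixed and stained after 5 days in one step with final 0.05% Triton X-100, 1% formaldehyde and 1 ug/ml Hoechst. Dosing was a single drug or a fixed anchor-drug dose plus five library-drug doses (not always all listed) in √10 steps, and values are medians of duplicate plates imaged at 4×.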

[2] = compound: CN(C)CC1=CC(=CC=C1)N=C(C2=CC=CC=C2)C3=C(NC4=C3C=CC(=C4)C(=O)N(C)C)O + Cc1nc(NC(=O)N2CCC[C@H]2C(N)=O)sc1-c1ccnc(C(C)(C)C(F)(F)F)c1 [Alpelisib] (partner 2 µM)
How it was run: as §1

[3] = compound: CN(C)CC1=CC(=CC=C1)N=C(C2=CC=CC=C2)C3=C(NC4=C3C=CC(=C4)C(=O)N(C)C)O + N=C(N)NC(=N)NCCc1ccccc1 [Phenformin] (partner 250 µM)
How it was run: as §1

[4] = compound: CN(C)CC1=CC(=CC=C1)N=C(C2=CC=CC=C2)C3=C(NC4=C3C=CC(=C4)C(=O)N(C)C)O + NC(=O)Nc1cc(-c2cccc(F)c2)sc1C(=O)N[C@H]1CCCNC1 [AZD7762] (partner 0.2 µM)
How it was run: as §1

Cell Line	relative viability ([1]; first compound 0.08 µM)	relative viability ([1]; first compound 0.253 µM)	relative viability ([1]; first compound 0.8 µM)	relative viability ([1]; first compound 2.53 µM)	relative viability ([1]; first compound 8 µM)	relative viability ([2]; first compound 0.08 µM)	relative viability ([2]; first compound 0.253 µM)	relative viability ([2]; first compound 0.8 µM)	relative viability ([2]; first compound 2.53 µM)	relative viability ([2]; first compound 8 µM)	relative viability ([3]; first compound 0.08 µM)	relative viability ([3]; first compound 0.253 µM)	relative viability ([3]; first compound 0.8 µM)	relative viability ([3]; first compound 2.53 µM)	relative viability ([3]; first compound 8 µM)	relative viability ([4]; first compound 0.08 µM)	relative viability ([4]; first compound 0.253 µM)	relative viability ([4]; first compound 0.8 µM)	relative viability ([4]; first compound 2.53 µM)	relative viability ([4]; first compound 8 µM)
NCI-H1395	0.649	0.619	0.651	0.489	0.579	1.04	0.948	1.1	0.87	0.964	0.377	0.488	0.465	0.417	0.417	0.406	0.343	0.446	0.39	0.42
NCI-H1437	0.465	0.49	0.489	0.453	0.44	1.01	0.996	0.951	0.906	0.971	0.269	0.298	0.335	0.349	0.36	1.19	1.16	1.16	1.03	1.12
NCI-H1651	0.685	0.647	0.636	0.474	0.608	1.05	0.985	1.03	0.807	0.826	0.346	0.343	0.349	0.292	0.329	0.483	0.474	0.414	0.435	0.397
NCI-H1666	0.507	0.528	0.4	0.486	0.545	1.07	0.98	1.01	1.18	0.946	0.569	0.579	0.615	0.58	0.585	0.908	0.857	0.847	0.764	0.852
NCI-H1734	0.479	0.461	0.408	0.402	0.471	0.624	0.71	0.643	0.693	0.5	0.354	0.408	0.385	0.376	0.368	0.644	0.532	0.506	0.56	0.526
NCI-H1755	0.46	0.433	0.349	0.418	0.381	0.903	0.91	0.916	0.867	0.853	0.577	0.58	0.601	0.549	0.566	0.374	0.383	0.481	0.452	0.411
NCI-H1792	0.303	0.248	0.27	0.207	0.18	0.689	0.588	0.669	0.644	0.555	0.255	0.211	0.357	0.179	0.231	0.639	0.658	0.643	0.506	0.71
NCI-H1793	0.355	0.266	0.32	0.35	0.345	0.633	0.886	0.58	0.812	0.814	0.405	0.394		0.324	0.284	0.527	0.386	0.407	0.346	0.436
NCI-H1915	0.911	0.972	0.92	0.901	0.918	1.12	1.05	1.11	1.05	1.02	0.368	0.35	0.383	0.361	0.352	0.704	0.729	0.756	0.699	0.578
NCI-H1944	0.36	0.343	0.318	0.367	0.322	0.828	0.799	0.748	0.826	0.783	0.2	0.217	0.183	0.177	0.187	0.56	0.576	0.419	0.525	0.434
NCI-H1975	0.306	0.324	0.245	0.257	0.275	0.632	0.646	0.545	0.553	0.471	0.378	0.407	0.357	0.393	0.36	0.756	0.761	0.68	0.692	0.707
NCI-H1993	0.826	0.86	0.98	0.799	0.768	0.83	0.671	0.622	0.694	0.732	0.504	0.498	0.586	0.507	0.493	0.59	0.705		0.937	0.877
NCI-H2085	0.386	0.479	0.414	0.448	0.493	1.03	0.973	1.05	0.949	1.06	0.747	0.711	0.635	0.784	0.638	1.03	0.978	0.995	0.988	0.969
NCI-H2087	0.963	0.786	0.926	0.848	0.806	1.14	1.24	1.15	1.15	0.992	0.478	0.522	0.403	0.48	0.31	1.13	1.28	1.36	1.45	1.33
NCI-H2126	0.451	0.518	0.451	0.541	0.507	0.806	0.784	0.751	0.762	0.779	0.522	0.553	0.542	0.511	0.557	0.974	0.96	0.931	0.943	0.976
NCI-H2170	0.299	0.329	0.238	0.303	0.297	0.809	0.827	0.514	0.714	0.578	0.404	0.4	0.408	0.381	0.384	0.921	0.88	0.589	0.867	0.682
NCI-H2347	0.868	0.637	0.697	0.663	0.6	1.02	0.983	1.07	1.08	1.04	0.436	0.46	0.368	0.454	0.467	0.898	0.647	0.7	0.719	0.734
NCI-H2405	0.457	0.357	0.441	0.385	0.382	0.87	0.713	0.889	0.721	0.654	0.358	0.387	0.378	0.347	0.249	0.715	0.72	0.713	0.659	0.681
NCI-H3122	0.664	0.55	0.643	0.698	0.746	0.679	0.81	0.813	0.732	0.792	0.386	0.38	0.391	0.302	0.354	1.01	0.967	1.03	1.02	1.07
PC-3 [JPC-3]	0.613	0.88	0.655	0.76	0.829	1.02	0.976	1.04	1.01	1.02	0.446	0.485	0.428	0.46	0.496	0.872	0.938	0.753	0.806	1.02
PC-14	0.698	0.608	0.63	0.591	0.662	0.92	0.865	0.962	0.924	0.837	0.572	0.545	0.617	0.602	0.734	0.392	0.395	0.377	0.387	0.411
RERF-LC-KJ	0.518	0.595	0.57	0.625	0.515	0.838	0.843	0.732	0.785	0.928	0.434	0.424	0.412	0.409	0.398	1.02	1	0.796	1.05	0.866
